Experiment [1] has as its target T1, GLP1R (Homo sapiens, UniProt P43220). In words: GLP1R cAMP assay, CHO cells stably expressing human GLP-1R. In kind it is cell-based. The procedure:
GLP-1R-mediated agonist activity was determined with a cell-based functional assay utilizing an HTRF (Homogeneous Time-Resolved Fluorescence) cAMP detection kit (cAMP Dynamic 2 Assay Kit; CisBio cat #62AM4PEC) that measures cAMP levels in the cell. The method is a competitive immunoassay between native cAMP produced by the cells and exogenous cAMP labeled with the dye d2. The tracer binding is visualized by a mAb anti-cAMP labeled with Cryptate. The specific signal (i.e., energy transfer) is inversely proportional to the concentration of cAMP in either standard or experimental sample.
Varying concentrations of each compound to be tested (in DMSO) were diluted in DMSO to obtain 200× compound working solution first and then 50 nl compounds were added to a white 384-well assay plate (Greiner 784075) with ECHO. The final DMSO concentration was 0.5%. The compound concentration range may be adjusted at any time.
Cells were removed from cryopreservation, re-suspended in 5 mL of Dulbecco's Phosphate Buffered Saline (DPBS-Sigma Cat # D8537) and centrifuged at 900 g for 5 min at 22° C. The cell pellet was then re-suspended in 1 mL of assay buffer [DPBS with 500 μM IBMX (Sigma #15879) and 0.1% BSA (Sigma # A1933). IBMX and BSA were freshly added on the day of assay]. A 10 μL sample of the cell suspension was counted on an Invitrogen Countess II to determine cell viability and cell count per mL. The remaining cell suspension was then adjusted with assay buffer to deliver 1000 viable cells per well using a Matrix Combi Multidrop reagent dispenser. 10 μL cell suspensions were added to each well of the assay plate which already contains compound. The plate was sealed and incubated at 37° C. with 5% CO2 for 30 minutes.
Following the 30 minute incubation, 5 μL of labeled d2 cAMP and 5 μL of anti-cAMP antibody (both diluted 1:20 in cell lysis buffer; as described in the manufacturer's assay protocol) were added to each well of the assay plate. The plates w ere then incubated at room temperature and after 60 minutes, changes in the HTRF signal were read with an Envision multi-label plate reader using excitation of 330 nm and emissions of 615 and 665 nm. Raw data were converted to nM cAMP by interpolation from a cAMP standard curve (as described in the manufacturer's assay protocol) and the percent effect was determined relative to a saturating concentration of the full agonist GLP-17-37 (10 nM) included on each plate. EC50 determinations were made from agonist dose-response curves analyzed with a curve fitting program using a 4-parameter logistic dose response equation. […]
On the technique in general: cAMP levels reflect the balance of adenylyl cyclase and phosphodiesterase activity.

The target in experiment [2] is T1, GLP1R. Put plainly: GLP1R cAMP HTRF assay, HEK293/GLP-1R/CRE/Luc (HEK293T cells). It is filed as cell-based. The method, boiled down: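 cAMP accumulation via HTRF after 30 min, 37 °C exposure of 1000 receptor-expressing cells/well to compound (0.5% DMSO final) in IBMX (500 μM)/0.1% BSA DPBS.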
In general terms: In TR-FRET formats the signal depends on donor and acceptor labels being close together.

The mark [3] stands for this setting: CHO cells stably expressing GLP-1R, read-out: CHO cAMP stable EC50.
The mark [4] stands for this setting: CHO cells, mean ± spread, read-out: CHO cells EC50.
The mark [5] stands for this setting: mean ± spread, read-out: HEK293T cells EC50.

T1 sequence (P43220 24-463): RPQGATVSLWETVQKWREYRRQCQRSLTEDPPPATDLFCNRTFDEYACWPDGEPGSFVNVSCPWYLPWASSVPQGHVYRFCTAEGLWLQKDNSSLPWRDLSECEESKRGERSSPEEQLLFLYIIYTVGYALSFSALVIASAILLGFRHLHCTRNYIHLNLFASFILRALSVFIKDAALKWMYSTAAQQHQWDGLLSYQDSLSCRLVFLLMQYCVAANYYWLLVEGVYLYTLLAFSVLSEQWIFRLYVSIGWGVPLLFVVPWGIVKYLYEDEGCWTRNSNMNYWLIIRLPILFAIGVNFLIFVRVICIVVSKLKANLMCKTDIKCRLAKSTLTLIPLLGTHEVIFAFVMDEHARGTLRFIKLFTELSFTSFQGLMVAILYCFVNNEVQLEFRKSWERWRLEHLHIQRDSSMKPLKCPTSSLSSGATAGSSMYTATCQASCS

The term EC50 denotes the concentration that produces a half-maximal response. For the compound `N#Cc1ccc(COc2cccc(N3CCC(Cc4nc5ccc(C(=O)O)nc5n4C[C@@H]4CCO4)CC3)n2)c(F)c1` [Compound 227, (S)-2-((l-(6-((4-cyano-2-fluorobenzyl)oxy)pyridin-2-yl)piperidin-4-yl)methyl)-3-(oxetan-2-ylmethyl)-3H-imidazo[4,5-b]pyridine-5-carboxylic acid], the EC50 in experiment [1] (setting [3]) was ≤ 150 nM; in experiment [2] (read-out: EC50), ≤ 15 nM. The corresponding values for `N#Cc1ccc(COc2cccc(N3CCC(Cc4nc5ccc(C(=O)O)c(F)c5n4C[C@@H]4CCO4)CC3)n2)c(F)c1` [Compound 228, (S)-2-((l-(6-((4-cyano-2-fluorobenzyl)oxy)pyridin-2-yl)piperidin-4-yl)methyl)-7-fluoro-1-(oxetan-2-ylmethyl)-1H-benzo[d]imidazole-6-carboxylic acid] are ≤ 150 nM and ≤ 15 nM.

Consider `N#Cc1ccc(COc2cccc(N3CCC(Cc4nc5ccc(C(=O)O)nc5n4C[C@@H]4CCO4)CC3)n2)nc1` [Compound 231, (S)-2-((l-(6-((5-cyanopyridin-2-yl)methoxy)pyridin-2-yl)piperidin-4-yl)methyl)-3-(oxetan-2-ylmethyl)-3H-imidazo[4,5-b]pyridine-5-carboxylic acid], for which the EC50 in experiment [2] (read-out: EC50) is ≤ 150 nM. The same measure, in the same setting: as for `O=C(O)c1ccc2nc(CC3CCN(c4cccc(OCc5ccc(Cl)cn5)n4)CC3)n(C[C@@H]3CCO3)c2c1F` [Compound 232, (S)-2-((l-(6-((5-chloropyridin-2-yl)methoxy)pyridin-2-yl)piperidin-4-yl)methyl)-7-fluoro-1-(oxetan-2-ylmethyl)-1H-benzo[d]imidazole-6-carboxylic acid], the figure is ≤ 150 nM; as for `N#Cc1ccc(COc2cccc(N3CCC(Cc4nc5ccc(C(=O)O)c(F)c5n4C[C@@H]4CCO4)CC3)n2)nc1` [Compound 233, (S)-2-((l-(6-((5-cyanopyridin-2-yl)methoxy)pyridin-2-yl)piperidin-4-yl)methyl)-7-fluoro-1-(oxetan-2-ylmethyl)-1H-benzo[d]imidazole-6-carboxylic add], ≤ 150 nM; as for `N#Cc1ccc(COc2cccc(N3CCN(Cc4nc5ccc(C(=O)O)nc5n4C[C@@H]4CCO4)CC3=O)n2)c(F)c1` [Compound 234, (S)-2-((4-(6-(4-cyano-2-fluorobenzyloxy)pyridin-2-yl)-3-oxopiperazin-1-yl)methyl)-3-(oxetan-2-ylmethyl)-3H-imidazo[4,5-b]pyridine-5-carboxylic acid], ≤ 150 nM.

`CC1(C)CN(Cc2nc3ccc(C(=O)O)cc3n2C[C@@H]2CCO2)CC=C1c1cccc(OCc2ccc(C#N)cc2F)n1` [Compound 235, (S)-2-((6-((4-cyano-2-fluorobenzyl)oxy)-3′,3′-dimethyl-3′,6′-dihydro-[2H′-bipyridin]-1′(2′H)yl)methyl)-1-(oxetan-2-ylmethyl)-1H-benzo[d]imidazole-6-carboxylic add]: in experiment [2] (read-out: EC50), the 50% effective concentration (EC50) was ≤ 1000 nM. On the same count and under the same terms, as for `N#Cc1ccc(COc2cccc(N3CC=C(Cc4nc5ccc(C(=O)O)cc5n4C[C@@H]4CCO4)CC3)n2)c(F)c1` [Compound 240, (S)-2-((6′-((4-cyano-2-fluorobenzyl)oxy)-3,6-dihydro-2H-[1,2′-bipyridin]-4-yl)methyl)-1-(oxetan-2-ylmethyl)-1H-benzo[d]imidazole-6-carboxylic add], the figure is ≤ 150 nM. On the same count and under the same terms, as for `Cn1cnc2ccc(COc3cccc(C4=CCN(Cc5nc6ccc(C(=O)O)cc6n5C[C@@H]5CCO5)CC4)n3)cc21` [Compound 241, (S)-2-((6-((1-methyl-1H-benzo[d]imidazol-6-yl)methoxy)-3′,6′-dihydro-[2,4′-bipyridin]-(2′H)-yl)methyl)-1-(oxetan-2-ylmethyl)-1H-benzo[d]imidazole-6-carboxylic add], the figure is ≤ 150 nM; as for `O=C(O)c1ccc2nc(CN3CC=C(c4cccc(OCc5ccc(-n6nccn6)cc5)n4)CC3)n(C[C@@H]3CCO3)c2c1` [Compound 243, (S)-2-((6-((4-(2H-1,2,3-triazol-2-yl)benzyl)oxy)-3′,6′-dihydro-[2,4′-bipyridin]-1′(2′H)-yl)methyl)-1-(oxetan-2-ylmethyl)-1H-benzo[d]imidazole-6-carboxylic add], ≤ 150 nM.

Take `O=C(O)c1ccc2nc(CN3CC=C(c4cccc(OCc5ccc(-n6ccnn6)cc5)n4)CC3)n(C[C@@H]3CCO3)c2c1` [Compound 244, (S)-2-((6-((4-(1H-1,2,3-triazol-1-yl)benzyl)oxy)-3′,6′-dihydro-[2,4′-bipyridin]-1′(2′H)-yl)methyl)-1-(oxetan-2-ylmethyl)-1H-benzo[d]imidazole-6-carboxylic add]: the concentration giving a half-maximal response (EC50) in experiment [2] (read-out: EC50) is ≤ 15 nM. `N#Cc1ccc(COc2cccc(C3=CCN(Cc4nc5ccc(C(=O)O)cc5n4C[C@@H]4CCO4)CC3)n2)c(F)c1` [drawing 55]: the concentration giving a half-maximal response (EC50) in experiment [1] (setting [4]) came out at 2.25 nM; in experiment [2] (setting [5]) it was 0.219 nM. In the same order, the values of `N#Cc1ccc(COc2nc(C3=CCN(Cc4nc5ccc(C(=O)O)cc5n4C[C@@H]4CCO4)CC3)ccc2F)c(F)c1` [drawing 57] are 6.05 nM and 0.517 nM.

For `O=C(O)c1ccc2nc(CN3CCC(c4ccnc(OCc5ccc(Cl)cc5F)n4)CC3)n(C[C@@H]3CCO3)c2c1` [drawing 58, reference compound], the EC50 in experiment [1] (setting [4]) came out at 95.8 nM; in experiment [2] (setting [5]), 1.98 nM. The corresponding values for `O=C(O)c1ccc2nc(CN3CC=C(c4ccnc(OCc5ccc(Cl)cc5F)n4)CC3)n(C[C@@H]3CCO3)c2c1` [drawing 59] are 73.7 nM and 1.8 nM. The corresponding values for `O=C(O)c1ccc2nc(CN3CCC(c4cncc(OCc5ccc(Cl)cc5F)n4)CC3)n(C[C@@H]3CCO3)c2c1` [drawing 60, reference compound] are 289 ± 53 nM and 10.5 nM.

For `O=C(O)c1ccc2nc(CN3CC=C(c4cncc(OCc5ccc(Cl)cc5F)n4)CC3)n(C[C@@H]3CCO3)c2c1` [drawing 61], the values for the EC50 in experiment [1] (setting [4]) and in experiment [2] (setting [5]) were 136 ± 32.6 nM and 2.94 nM, respectively.

`N#Cc1ccc(COc2cncc(C3CCN(Cc4nc5ccc(C(=O)O)cc5n4C[C@@H]4CCO4)CC3)n2)c(F)c1` [drawing 62, reference compound]: the 50% effective concentration (EC50) in experiment [1] (setting [4]) was 924 ± 230 nM; in experiment [2] (setting [5]) it was 15.9 nM. The corresponding values for `N#Cc1ccc(COc2cncc(C3=CCN(Cc4nc5ccc(C(=O)O)cc5n4C[C@@H]4CCO4)CC3)n2)c(F)c1` [drawing 63] are 260 ± 38 nM and 9.85 nM. As to `O=C(O)c1ccc2nc(CN3CC=C(c4cccc(OCc5ccc(Cl)cc5F)n4)CC3)n(C[C@@H]3CCO3)c2c1` [drawing 65], the 50% effective concentration (EC50) in experiment [1] (setting [4]) was 3.28 nM; in experiment [2] (setting [5]), 0.393 nM. Take `O=C(O)c1ccc2nc(CN3CCC(c4cccc(OCc5ccc(Cl)cc5F)c4)CC3)n(C[C@@H]3CCO3)c2c1` [drawing 66, reference compound]: the EC50 turned out to be 105 ± 32.7 nM in experiment [1] (setting [4]) and 8.58 nM in experiment [2] (setting [5]). As for `O=C(O)c1ccc2nc(CN3CC=C(c4cccc(OCc5ccc(Cl)cc5F)c4)CC3)n(C[C@@H]3CCO3)c2c1` [drawing 67], the concentration for a half-maximal effect (EC50) in experiment [1] (setting [4]) amounted to 42.6 ± 11.5 nM; in experiment [2] (setting [5]), 3.94 nM.

Regarding “(S)-2-((4-(2-((4-(cyclopropylethynyl)-2-fluorobenzyl)oxy)pyrimidin-4-yl)piperazin-1-yl)methyl)-1-(oxetan-2-ylmethyl)-1H-benzo[d]imidazole-6-carboxylic add [Compound 194]”, the EC50 in experiment [2] (read-out: EC50) is ≤ 150 nM. On the same count and under the same terms, as for “(S)-2-((4-(3-((4-cyano-2-fluorobenzyl)oxy)-5-fluorophenyl)-5,6-dihydropyridin-1(2H)-yl)methyl)-1-(oxetan-2-ylmethyl)-1H-benzo[d]imidazole-6-carboxylic add [Compound 218]”, the figure is ≤ 150 nM.

These data come from patent US10844049B2, “GLP-1R agonists and uses thereof” (QILU REGOR THERAPEUTICS INC., priority 2018, dated 2020).
